The source made the active and inactive calls.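 How the source made its calls: active means maximal percent inhibition of the deubiquitinase OTUD3 of at least 30% across the tested doses; inactive means the rest.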
Target: OTU domain-containing protein 3 (Homo sapiens) (UniProt Q5T2D3)
Experiment: Validation of screening hits, potency titration, in vitro enzymatic, OTU domain-containing protein 3 DUB inhibitors (AID 1645868)
Details: purified OTUD3, ubiquitin-rhodamine cleavage fluorescence, 2 h

Sequence of OTU domain-containing protein 3 (Homo sapiens) (Q5T2D3 whole entry, looked up, the tested form may be a part): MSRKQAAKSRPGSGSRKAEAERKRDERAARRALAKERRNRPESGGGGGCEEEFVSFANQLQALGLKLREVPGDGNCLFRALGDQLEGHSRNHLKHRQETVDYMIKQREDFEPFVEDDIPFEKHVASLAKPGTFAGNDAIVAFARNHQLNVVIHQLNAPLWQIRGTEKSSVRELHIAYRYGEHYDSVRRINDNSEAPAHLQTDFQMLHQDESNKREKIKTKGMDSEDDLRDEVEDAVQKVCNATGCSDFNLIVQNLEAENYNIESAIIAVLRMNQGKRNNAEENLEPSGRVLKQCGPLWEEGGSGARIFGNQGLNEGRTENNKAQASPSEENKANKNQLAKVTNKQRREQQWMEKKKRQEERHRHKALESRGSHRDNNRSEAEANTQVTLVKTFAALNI

SMILES	IC50
O=C1NCCCC1Cc1ccc(-c2cccc(C(=O)N3CCc4ccccc4C3)c2)cc1 (centres undefined)	> 50 µM (inactive)
Cc1ccc2nc(NC(=O)CSc3nnc(-c4ccncc4)n3C3CC3)sc2c1	> 50 µM (inactive)
O=C(CCCn1c(=O)c2ccccc2n(CC(=O)NCc2ccccc2Cl)c1=O)NCc1ccc2c(c1)OCO2	3.31 µM
Cc1nc2sc(C(=O)Nc3ccccc3Br)c(N)c2c(C)c1C	15.5 µM
Cc1noc(C)c1CN1CC[C@H]2O[C@H](C(=O)NCc3ccco3)CC[C@H]21	> 50 µM (inactive)
CCC(=O)OCc1cnc(C)c2oc(=O)c(-c3nc(-c4ccccc4)no3)cc12	> 50 µM (inactive)
COc1cc(OC)cc(-n2c(=O)c3sccc3n(CC(=O)Nc3ccc(C)cc3)c2=O)c1	21.1 µM
Cc1cc(C)n2nc(CNc3cccc(Cl)c3)nc2n1	> 50 µM (inactive)
N#Cc1ccccc1OCc1csc(-c2ccccc2)n1	> 50 µM (inactive)
COc1ccc(Cl)cc1NC(=O)c1cc(-c2ccccn2)n[nH]1	2.58 µM
Cc1nc(-c2ccccn2)sc1C(=O)Nc1ccc(C#N)cc1	> 50 µM (inactive)
Cc1ccc2c(c1)[C@]1(C(=O)N2)[C@@H]2C(=O)N(c3cccc(C(F)(F)F)c3)C(=O)[C@@H]2C2CCCN21 (some centres undefined)	> 50 µM (inactive)
Cc1noc(-c2ccc(N3CCCC(C(=O)NCc4ccc(F)cc4)C3)nc2)n1 (centres undefined)	32.2 µM
O=C(NCc1ccco1)c1ccc2c(c1)N(Cc1cccc(F)c1)C(=O)c1ccccc1S2	> 50 µM (inactive)
CC1Oc2ccccc2C(=O)N(Cc2ccc([N+](=O)[O-])cc2)C1=O (centres undefined)	> 50 µM (inactive)
COc1ccc(NC(=O)C2[C@@H]3C(=O)N(C4CCCCC4)C(=O)[C@@H]3[C@H]3c4ccccc4C=CN23)cc1 (some centres undefined)	> 50 µM (inactive)
Cc1cc(C(F)(F)F)n(-c2ccc(NC(=O)Nc3cccc(C(F)(F)F)c3)cc2)n1	11.4 µM
CC(=O)Nc1cc2cc(-n3cccc3)ccc2oc1=O	> 50 µM (inactive)
NS(=O)(=O)c1cccc(NS(=O)(=O)c2ccc(/C=C/C(=O)OCC(=O)c3ccc(Br)cc3)cc2)c1	> 50 µM (inactive)
CCN1C(=O)c2cccnc2Sc2cc(NC(=O)c3ccc(Cl)s3)ccc21	> 50 µM (inactive)
Cc1cccc(NC(=O)CSc2nnc(-c3n[nH]c4c3CCC4)n2N)c1C	17.9 µM
COCCNC(=O)c1cc(-c2cn(-c3ccccn3)c(C)n2)n2ccccc12	> 50 µM (inactive)
Cc1cccc(NC(=O)Cn2cnc(-c3noc(-c4ccccc4)n3)c2)c1C	2.42 µM
O=C(NCc1ccc(-c2nc3cnccc3o2)cc1)c1ccccc1Br	> 50 µM (inactive)
COC(=O)c1ccc(C(=O)Nc2cc3ccccc3cc2NC(=O)c2ccc(C(=O)OC)cc2)cc1	19.1 µM
CCCn1c(=O)c(-c2ccc(C(=O)NCc3ccc(OC)cc3)cc2)nc2cccnc21	6.42 µM
O=C(CSc1cn(Cc2ccccc2)c2ccccc12)Nc1ccc2c(c1)OCCO2	> 50 µM (inactive)

SMILES	IC50
O=C(NCC1CC1)C1CCCN(c2ccc(-c3ccccc3)nn2)C1 (centres undefined)	> 50 µM (inactive)
O=C(COC(=O)C1CCCN1C(=O)C12CC3CC(CC(C3)C1)C2)c1ccc(Cl)cc1 (centres undefined)	> 50 µM (inactive)
CC1CCN(c2nnc(-c3nc(C4CC4)no3)c3ccccc23)CC1	> 50 µM (inactive)
O=C(COc1cccc2c1CCN(Cc1cccnc1)C2=O)Nc1ccc2c(c1)OCCO2	> 50 µM (inactive)
COc1ccccc1CNC(=O)CCCn1c(=O)c2ccccc2n(CC(=O)N2CCN(c3ccccc3)CC2)c1=O	25.5 µM
CC1=C(Cn2c3cccc(=O)c-3nc3ccccc32)CCC(C)(C)C1	3.73 µM
Cn1c(=O)sc2cc(NC(=O)c3ccc(Br)cc3)ccc21	15.2 µM
CCN1CCN(C(=O)CCCN(c2ccccc2)S(C)(=O)=O)CC1	> 50 µM (inactive)
O=S(=O)(c1ccccc1)N1CCN2Cc3ccccc3N(Cc3ccccc3)CC2C1 (centres undefined)	> 50 µM (inactive)
O=[N+]([O-])c1cccc(CSc2nnc(/C=C/c3ccccc3)o2)c1	> 50 µM (inactive)
C[C@@H]1O[C@@H](O[C@H]2[C@H](O[C@H]3[C@H](O[C@H]4CC[C@@]5(C)[C@@H](CC[C@]6(C)[C@@H]5CC=C5[C@@H]7CC(C)(C)CC(=O)[C@]7(C)CC[C@]56C)[C@@]4(C)CO)O[C@H](C(=O)O)[C@@H](O)[C@@H]3O)OC[C@@H](O)[C@@H]2O)[C@H](O)[C@H](O)[C@H]1O	> 50 µM (inactive)
CCS(=O)(=O)c1ccccc1C(=O)Nc1ccc2sc(C)nc2c1	> 50 µM (inactive)
Cc1cc(C(=O)CN2CCN(Cc3ccc4c(c3)OCO4)CC2)c(C)n1-c1ccc2c(c1)OCO2	> 50 µM (inactive)
COc1ccc(OC)c(NC(=O)c2ccc(-n3nnnc3SC)cc2)c1	> 50 µM (inactive)
CCS(=O)(=O)N1CCc2cc(C(=O)Nc3ccc4c(c3)OCCO4)ccc21	> 50 µM (inactive)
O=S(=O)(O)c1cc2cc3ccccc3cc2[nH]1	> 50 µM (inactive)
Cc1nc2ccccn2c1C1(O)C(=O)Nc2c(Cl)cc(Cl)cc21 (centres undefined)	> 50 µM (inactive)
CNc1nc2c(c(=O)n1Cc1ccccc1)CN(C(=O)c1ccc(CN)cc1)CC2	> 50 µM (inactive)
COc1cc(NC(=O)Cc2ccccc2)ccc1NC(=O)c1cc2ccccc2o1	16.4 µM
O=C(NCc1ccc(F)cc1)N1CCC2(C1)Nc1cccnc1NC2=NCc1ccccc1 (centres undefined)	> 50 µM (inactive)
COc1ccc(CCNC(=O)c2c(N)n(-c3cccc(Cl)c3)c3nc4ccccc4nc23)cc1	> 50 µM (inactive)
COc1ccc(C(=O)Nc2sc3c(c2C(=O)NCc2cccnc2)CCCC3)cc1	> 50 µM (inactive)
NS(=O)(=O)c1cc(C(=O)OCC(=O)c2ccc3c(c2)OCCO3)ccc1Cl	> 50 µM (inactive)
O=C(Nc1cccc(C(F)(F)F)c1)N1CCCn2c(nc3ccccc32)C1	37.6 µM
Cc1cccc(C(=O)NCc2nc3ccccc3n2Cc2ccccc2C)c1	> 50 µM (inactive)
O=C1COc2ccccc2N1Cc1noc(-c2ccccc2)n1	> 50 µM (inactive)
O=C(Cc1cccs1)Nc1cc(F)c2nc(N3CCOCC3)ccc2c1	> 50 µM (inactive)

SMILES	IC50
Cc1ccc(Cn2c(=O)c3ccccc3n3c(CCC(=O)N4CCN(c5ccccn5)CC4)nnc23)cc1	9.18 µM
N[C@@H](Cc1ccccc1)C(=O)N1CCC2(CC1)CN(C(=O)c1ccc(Cl)cc1)CCO2	> 50 µM (inactive)
CC(C)Cc1nc2sc3c(NCCN4CCOCC4)ncnc3c2c2c1CCC2	> 50 µM (inactive)
O=C(NC1(O)C(=O)c2ccccc2C1=O)c1cccc2c1-c1ccccc1C2=O	35.1 µM
Cc1cccc(N2C(=O)/C(=C\c3ccc4c(c3)OCCO4)c3ccccc3C2=O)c1	> 50 µM (inactive)
Fc1ccc(Cn2ccc(-c3cnc(-c4ccccc4)s3)n2)cc1	> 50 µM (inactive)
CCC(=O)Nc1cccnc1-c1ccc(C(=O)Nc2cccc(OC)c2)cc1	> 50 µM (inactive)
CCOc1ccc2c(c1)c(=O)c(C(=O)c1ccc(C)cc1)cn2CC(=O)Nc1ccc(OC)c(OC)c1	2.01 µM
COc1ccccc1NC(=O)Cn1cc(C(=O)c2ccc(C)cc2)c(=O)c2ccccc21	39.5 µM
CCCCc1ccc(-c2cc(C(=O)NCCN3CCOCC3)c3cc(Br)ccc3n2)cc1	23.4 µM
COc1ccc(NC(=O)C2CC(=O)Nc3c(-c4ccc(Cl)cc4)cnn32)c(OC)c1 (centres undefined)	34 µM
O=C(NCc1ccc(Cl)cc1)Nc1cccc2ccccc12	> 50 µM (inactive)
CC(=O)N1CCCC(c2nc(C)cc(-c3cc(F)ccc3C(=O)O)n2)C1 (centres undefined)	> 50 µM (inactive)
CN(C(=O)c1ccncc1)[C@H]1CC[C@@]2(C)C[C@H](c3ccccc3)C[C@](C)(O2)[C@@H]1O	> 50 µM (inactive)
Cc1cc(Nc2ccc(C(=O)NCc3ccco3)cc2)n2nc(-c3cccnc3)nc2n1	37.1 µM
O=C(NCc1ccc2c(c1)OCO2)c1cc(-c2cc(Cl)ccc2O)n[nH]1	40.7 µM
N#Cc1cn(CC(=O)N2CCc3ccccc32)c2ccccc12	> 50 µM (inactive)
CN[C@H]1CC2(CCN(C(=O)CCCn3cccn3)CC2)OC[C@]1(C)O	> 50 µM (inactive)
O=C(CSc1ccc2nnc(-c3ccccc3)n2n1)N1CCCc2ccccc21	15 µM
O=C(NCCc1ccco1)c1ccc(N2CCOc3ccccc32)s1	28.4 µM
Cc1cccc2sc(NC(=O)c3nnn(-c4ccc(F)cc4)n3)nc12	> 50 µM (inactive)
CO[C@H]1CC[C@H](O)c2c1oc1c3c4c(c(O)c1c2=O)-c1c(cc2c(Cl)c(C)n(N)c(=O)c2c1O)C[C@@H]4OCO3	26.6 µM
CC(=O)c1ccc(NC(=O)c2ccc(N3CCCCS3(=O)=O)cc2Cl)cc1	37 µM
CC(C)(C)c1cc(C[C@@H]2C[C@H](NC(=O)N3CCOCC3)C2(C)C)no1	> 50 µM (inactive)
CCOc1ccc(-c2ccc3nnc(SCC(=O)Nc4cccc(C(C)=O)c4)n3n2)cc1	> 50 µM (inactive)

— PubChem BioAssay AID1645868 (Buhrlage Lab, Dana-Farber Cancer Institute and Novartis …, 2021)
